Results published in ChEMBL document CHEMBL1201862, “PubChem BioAssay data set” (2004).
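The compound was tested at five concentrations on cells cultured in 96-well plates, with a 48-hour exposure period. At the GI50, growth is halved.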 Activity calls are given as the source filed them. Cut-off read from the data, not from the text of the source: active = GI50 up to about 1.1 µM and inactive = higher.

Key:
Assay in all cases: DTP human tumour cell line panel, 48 h
U-251 = tested on: U-251
SR = tested on: SR
HCT-116 = tested on: HCT-116
MDA-MB-231 = tested on: MDA-MB-231
M14 = tested on: M14
NCI-H460 = tested on: NCI-H460
SNB-75 = tested on: SNB-75
SF-268 = tested on: SF-268
SK-MEL-28 = tested on: SK-MEL-28
SF-295 = tested on: SF-295
OVCAR-5 = tested on: OVCAR-5
RXF 393 = tested on: RXF 393
CAKI-1 = tested on: CAKI-1
786-0 = tested on: 786-0
OVCAR-4 = tested on: OVCAR-4
CCRF-CEM = tested on: CCRF-CEM
KM12 = tested on: KM12
HCC 2998 = tested on: HCC 2998
HT-29 = tested on: HT-29
Hs-578T = tested on: Hs-578T

Measured: GI50

Cc1cc(-c2nc3ccccc3s2)ccc1NC(=O)[C@@H](N)CCCCN
inactive: U-251 4.59 µM | SR 3.24 µM | HCT-116 6.22 µM | MDA-MB-231 9.04 µM | M14 2.47 µM | NCI-H460 2.22 µM | SNB-75 3.68 µM | SF-268 6.07 µM | SK-MEL-28 15.3 µM | SF-295 5.07 µM | OVCAR-5 12.5 µM | RXF 393 3.89 µM | CAKI-1 7.5 µM | 786-0 5.96 µM | OVCAR-4 5.87 µM | CCRF-CEM 6.92 µM | KM12 2.82 µM | HCC 2998 6.31 µM | HT-29 7.16 µM | Hs-578T 18.5 µM

O=C1N=NC(=O)N1c1cc(C(F)(F)F)cc(C(F)(F)F)c1
inactive: U-251 3.12 µM | SR 4.69 µM | HCT-116 3.24 µM | MDA-MB-231 2.38 µM | M14 5.7 µM | NCI-H460 3.23 µM | SNB-75 2.95 µM | SF-268 3.7 µM | SK-MEL-28 10.6 µM | SF-295 2.78 µM | OVCAR-5 4.09 µM | RXF 393 3.29 µM | CAKI-1 2.94 µM | 786-0 4.68 µM | OVCAR-4 4.21 µM | CCRF-CEM 3.69 µM | KM12 3.93 µM | HCC 2998 3.45 µM | HT-29 2.73 µM | Hs-578T 3.93 µM

Cc1cccc(C)c1NC(=S)NC=C1C(=O)c2ccccc2C1=O
inactive: U-251 3.09 µM | SR 2.22 µM | HCT-116 4.62 µM | MDA-MB-231 19.5 µM | M14 17.5 µM | NCI-H460 3.98 µM | SNB-75 3.52 µM | SF-268 7.52 µM | SK-MEL-28 15.3 µM | SF-295 4.67 µM | OVCAR-5 39.7 µM | RXF 393 4.3 µM | CAKI-1 17.8 µM | 786-0 13.1 µM | OVCAR-4 10.5 µM | CCRF-CEM 5.18 µM | KM12 2.83 µM | HCC 2998 5.86 µM | HT-29 5.78 µM | Hs-578T 10.5 µM

COC(=O)C1(Cc2ccc3c(c2)CCC3)Cc2cc3c(cc2C1=O)CCC3 (stereo not given)
inactive: U-251 29.4 µM | SR 11.4 µM | HCT-116 11.4 µM | MDA-MB-231 24.6 µM | M14 20.8 µM | NCI-H460 15.3 µM | SNB-75 42.2 µM | SF-268 > 46.5 µM | SK-MEL-28 37.2 µM | SF-295 35.6 µM | OVCAR-5 > 46.5 µM | RXF 393 29.4 µM | CAKI-1 6.73 µM | 786-0 > 46.5 µM | OVCAR-4 18.7 µM | CCRF-CEM 17.7 µM | KM12 18 µM | HCC 2998 22.1 µM | HT-29 20.3 µM | Hs-578T 33 µM

CCCCCCCCCCCC[C@@H](O)[C@H]1CC[C@H]([C@H](O)CC[C@H](O)[C@@H]2CC[C@@H](CCCCCCCC3=C[C@H](C)OC3=O)O2)O1
inactive: U-251 > 50 µM | SR 1.27 µM | HCT-116 5.58 µM | MDA-MB-231 > 50 µM | M14 > 50 µM | NCI-H460 2.54 µM | SNB-75 > 50 µM | SF-268 > 50 µM | SK-MEL-28 > 50 µM | SF-295 > 12.6 µM | OVCAR-5 > 50 µM | RXF 393 > 50 µM | CAKI-1 > 50 µM | 786-0 > 50 µM | OVCAR-4 > 50 µM | CCRF-CEM > 38.4 µM | KM12 > 50 µM | HCC 2998 > 50 µM | HT-29 > 50 µM | Hs-578T 3.94 µM

COCC#C[C@@]1(O)CCCCC1CC(OC)OC (stereo not given in full)
inactive: U-251 > 100 µM | SR 40.3 µM | HCT-116 81.8 µM | MDA-MB-231 > 100 µM | M14 > 100 µM | NCI-H460 > 100 µM | SNB-75 > 100 µM | SF-268 > 100 µM | SK-MEL-28 > 100 µM | SF-295 > 100 µM | OVCAR-5 > 100 µM | RXF 393 > 100 µM | CAKI-1 > 100 µM | 786-0 > 100 µM | OVCAR-4 50.4 µM | CCRF-CEM 38.5 µM | KM12 > 100 µM | HCC 2998 > 100 µM | HT-29 > 100 µM | Hs-578T > 100 µM

NC(Cc1ccnnc1)C(=O)O (stereo not given)
inactive: U-251 > 100 µM | SR > 100 µM | HCT-116 > 100 µM | MDA-MB-231 > 100 µM | M14 > 100 µM | NCI-H460 > 100 µM | SNB-75 > 100 µM | SF-268 > 100 µM | SK-MEL-28 > 100 µM | SF-295 > 100 µM | OVCAR-5 > 100 µM | RXF 393 > 100 µM | CAKI-1 > 100 µM | 786-0 > 100 µM | OVCAR-4 > 100 µM | CCRF-CEM > 100 µM | KM12 > 100 µM | HCC 2998 > 100 µM | HT-29 > 100 µM | Hs-578T > 100 µM

Nc1nc(Cl)c(C=O)c(NCC2(CO)CC(CCc3ccccc3)C2)n1 (stereo not given)
inactive: U-251 13.6 µM | SR 1.87 µM | HCT-116 13.7 µM | MDA-MB-231 7.46 µM | M14 2.54 µM | NCI-H460 16.7 µM | SNB-75 18.7 µM | SF-268 15.4 µM | SK-MEL-28 4 µM | SF-295 13.3 µM | OVCAR-5 15.8 µM | RXF 393 14.2 µM | CAKI-1 1.55 µM | 786-0 21 µM | OVCAR-4 2 µM | CCRF-CEM 7.85 µM | KM12 13.7 µM | HCC 2998 1.88 µM | HT-29 12.4 µM | Hs-578T 22.9 µM

COC(=O)[C@]12CC[C@H]3CC[C@H]([C@H]31)[C@H](c1ccccc1)N2
inactive: U-251 17 µM | SR 12.1 µM | HCT-116 15.6 µM | MDA-MB-231 16.3 µM | M14 17.9 µM | NCI-H460 15.9 µM | SNB-75 26.9 µM | SF-268 19.6 µM | SK-MEL-28 21.9 µM | SF-295 16.3 µM | OVCAR-5 17.3 µM | RXF 393 14.2 µM | CAKI-1 17.7 µM | 786-0 15.7 µM | OVCAR-4 15.2 µM | CCRF-CEM 21.4 µM | KM12 18.5 µM | HCC 2998 13.5 µM | HT-29 15.1 µM | Hs-578T 23 µM

COC(=O)[C@@H](NS(=O)(=O)CC12CCC(CC1)C2(C)C)C(C)(C)C
inactive: U-251 > 100 µM | SR 23.3 µM | HCT-116 > 100 µM | MDA-MB-231 > 100 µM | M14 > 100 µM | NCI-H460 > 100 µM | SNB-75 > 100 µM | SF-268 > 100 µM | SK-MEL-28 > 100 µM | SF-295 > 100 µM | OVCAR-5 > 100 µM | RXF 393 44.4 µM | CAKI-1 > 100 µM | 786-0 > 100 µM | OVCAR-4 > 100 µM | CCRF-CEM > 100 µM | KM12 > 100 µM | HCC 2998 > 100 µM | HT-29 > 100 µM | Hs-578T > 100 µM
